{"source": "patent US12318365B2", "about": "“Inhibition of dipeptide repeat proteins” (ALS Therapy Development Institute, priority 2019, dated 2025)", "system": "NSC-34 cells", "assay": "Caspase-3 assay (apoptotic activity) in NSC-34 cells", "format": "cell-based", "details": "for DRP-induced apoptotic activity: DRP 0.01-3 μM, 24 h, compared to DMSO-treated controls", "from_the_text": "Caspase-3/CPP32 Assay: The caspase-3 assay is a fluorometric assay that measures apoptotic cell death. Apoptosis is a form of “programmed” cell death, in which a certain family of proteins inside the cell triggers a cascade of chemical reactions that result in the cell killing itself. One family of proteins involved in this process is the caspase protein family. Of the caspase proteins, caspase-2, 8, 9, and 10 are known as “initiators,” those that trigger the death cascade, and caspase-3, 6, and 7 are known as “executioners,” which carry out the actual killing of the cell. In a caspase-3 assay, cells treated with test compounds are lysed, and a substrate known as DEVD-AFC is added to the lysate. If active caspase-3 enzyme is present in the lysate, it will cleave AFC from the DEVD-AFC substrate, resulting in a fluorescent signal that can be quantified using a fluorescence microtiter plate reader. Thus, the apoptotic activity of cells treated with test compounds can be quantified. Greater fluorescence readings correspond to more apoptotic cell death.\nCells were plated in culture medium in 2 96-well plates at a density of 3.7×10^4 cells per well, and incubated overnight at 37° C., 5% CO2. The following day, immediately prior to addition of test compounds, existing culture medium was removed and replaced with staggered volumes of culture medium as in Example 1. A 10 mM stock of MS023 was thawed to room temperature and diluted as in Example 1. A 10 mM stock of GR15 (SEQ ID NO: 1) and a 10 mM stock of PR15 (SEQ ID NO: 2) were equilibrated to room temperature and diluted in warm culture medium to achieve a final concentration of 300 nM in wells.\nThe following conditions were plated in triplicate. Samples were surrounded by border wells on the outside of the plate filled with sterile Phosphate-buffered saline to prevent evaporation of volume in experimental wells during incubation; • Background (Culture medium only) • Untreated/“Cells Only” (Cells in culture medium) • DMSO Control (Cells treated only with the amount of DMSO that GR- and PR-treated cells were exposed to) • GR Only (Cells treated only with 300 nM GR15) (SEQ ID NO: 1) • Cells treated with […] GR15 (SEQ ID NO: 1) and one of the following doses of MS023: 60 μM, 30 μM, 10 μM, 3 μM, 1 μM. • PR Only (Cells treated only with 300 nM PR15) (SEQ ID NO: 2) • Cells treated with 300 nM PR15 (SEQ ID NO: 2) and one of the following doses of MS023: 60 μM, 30 μM, 10 μM, 3 μM, 1 μM. • Cells treated with only one of the following doses of MS023: 60 μM, 30 μM, 10 μM, 3 μM, 1 μM. • Positive controls (Cells treated with either 5 or 16 μM PAC-1 Caspase-3 activator)\nPlates were incubated for 24 h at 37° C., 5% CO2. Cells were tested and data were analyzed using the procedure detailed in Caspase-3 assay kit instructions.\nCells were plated in culture medium in 2 96-well plates at a density of 3.7×10^4 cells per well, and incubated overnight at 37° C., 5% CO2. The following day, immediately prior to addition of test compounds, existing culture medium was removed and replaced with staggered volumes of culture medium as in Example 1. A 10 mM stock of MS023 was thawed to room temperature and diluted in warm culture medium to achieve final concentrations of 3, 1, 0.3, 0.1, 0.03, and 0.01 μM in plate. A 10 mM stock of GR15 (SEQ ID NO: 1) and a 10 mM stock of PR15 (SEQ ID NO: 2) were equilibrated to room temperature and diluted in warm culture medium to achieve a final concentration of 3 μM in wells.\nThe following conditions were plated in triplicate. […]", "note": "No end group written: not given here.", "data": [{"compound": "CC(C)Oc1ccc(-c2c[nH]cc2CN(C)CCN)cc1", "note": "[MS023]", "values": [{"measurement": "dose dependence of abrogation of GR-induced apoptotic activity", "setting": "300 nM GR15, 24 h, MS023 1-60 μM", "value": "dose-dependently"}, {"measurement": "abrogation of GR-induced apoptotic activity", "setting": "300 nM GR15, 24 h, doses 3 and 1 μM", "value": "fully abrogated"}, {"measurement": "abrogation of GR-induced apoptotic activity", "setting": "300 nM GR15, 24 h, doses 60, 30 and 10 μM", "value": "partially abrogated"}, {"measurement": "dose dependence of abrogation of PR-induced apoptotic activity", "setting": "300 nM PR15, 24 h, MS023 1-60 μM", "value": "dose-dependently"}, {"measurement": "abrogation of PR-induced apoptotic activity", "setting": "300 nM PR15, 24 h, all doses (1-60 μM)", "value": "fully abrogated"}, {"measurement": "dose dependence of abrogation of GR-induced apoptotic activity", "setting": "3 μM GR15, 24 h, MS023 0.01-3 μM", "value": "dose-dependently abrogated"}, {"measurement": "abrogation of GR-induced apoptotic activity", "setting": "3 μM GR15, 24 h, all doses (0.01-3 μM)", "value": "partially abrogated"}, {"measurement": "abrogation of GR-induced apoptotic activity", "setting": "3 μM GR15, 24 h, dose 3 μM", "value": "fully abrogated"}, {"measurement": "dose dependence of abrogation of PR-induced apoptotic activity", "setting": "3 μM PR15, 24 h, MS023 0.01-3 μM", "value": "dose-dependently abrogated"}, {"measurement": "abrogation of PR-induced apoptotic activity", "setting": "3 μM PR15, 24 h, all doses (0.01-3 μM)", "value": "partially abrogated"}, {"measurement": "abrogation of PR-induced apoptotic activity", "setting": "3 μM PR15, 24 h, dose 3 μM", "value": "fully abrogated"}]}, {"compound": "GRGRGRGRGRGRGRGRGRGRGRGRGRGRGR [GR15]", "values": [{"measurement": "DRP-induced apoptotic activity", "value": "producing the most significant amount of apoptotic activity"}]}, {"compound": "PRPRPRPRPRPRPRPRPRPRPRPRPRPRPR [PR15]", "values": [{"measurement": "DRP-induced apoptotic activity", "value": "producing the most significant amount of apoptotic activity"}]}]}
